Laboratory results as given in US20240246918A1, “COMPOUNDS AND COMPOSITIONS AS EIF4E INHIBITORS AND THE USES THEREOF” (Ribometrix, Inc., priority 2022, published 2024).
pIC50: −log10 of the molar value. Where two headings read alike, the source gives them in different places.

Assays:
[1] = tested on: cyclin D1 protein levels in COLO 205 cells; experiment: Cyclin D1 cellular inhibition assay (HTRF, 6 hours); type: cell-based; conditions: Homo sapiens, COLO 205, 6 h, 6 hours of compound treatment, Cyclin D1 protein levels by HTRF, read-out: COLO 205 6 h Cyclin D1 TR-FRET IC50
Experimental: The effect of compound treatment on cyclin D1 protein levels in COLO 205 cells was assessed, as follows. Test compound plates were prepared with a Tecan D300e Digital Dispenser as 11-point concentration-response curves with a final DMSO concentration of 1%. COLO 205 (ATCC, CCL-222) colorectal tumor cells were seeded to assay-ready plates in RPMI-1640 medium supplemented with 10% FBS at 20,000 cells in a volume of 6 microliters per well. After 6 hours of compound treatment, cells were lysed and Cyclin D1 protein levels were assessed by an HTRF assay (PerkinElmer #64CYCD1ITPEG), according to the manufacturer's protocol. Time-resolved fluorescence was measured using a Clariostar Plus microplate reader (BMG Labtech) or equivalent. After normalization to the average of DMSO control and maximum inhibition control wells, concentration-response data were plotted and standard 4-parameter curve fitting (GraphPad Prism v9.4.1) was utilized to determine IC50 values.

[2] = tested on: COLO 205 colorectal tumor cells; experiment: Tumor cell viability inhibition assay (CellTiter-Glo 2.0, 72 hours); type: cell-based; conditions: COLO 205 cell viability
Procedure, shortened: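 COLO 205 cells (1500/well, RPMI-1640 + 10% FBS) exposed for 72 h to an 11-point, 4-fold dilution series; cellular ATP read by CellTiter-Glo 2.0 luminescence. Data normalized to DMSO and maximum-inhibition controls; IC50 from 4-parameter curve fit.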

[3] = biological target: T1, human eIF4E protein (Homo sapiens, UniProt P06730); experiment: Biochemical competitive binding assay (TR-FRET competition, EDA-m7GDP-ATTO-647N probe); conditions: read-out: hEIF4E TR-FRET IC50
T1 construct: purchased Novus NBP-45314
T1 sequence (P06730 whole entry): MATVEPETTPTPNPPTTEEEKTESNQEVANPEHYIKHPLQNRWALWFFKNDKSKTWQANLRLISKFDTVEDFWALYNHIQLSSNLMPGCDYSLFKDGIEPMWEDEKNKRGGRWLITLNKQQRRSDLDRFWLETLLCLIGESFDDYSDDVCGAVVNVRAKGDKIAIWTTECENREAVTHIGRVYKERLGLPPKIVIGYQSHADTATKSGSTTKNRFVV
Procedure, shortened: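 His-tagged human eIF4E (4 nM) was preincubated with Eu-anti-His antibody (2.5 nM) and added to compound (11-point, 4-fold dilutions) for 15 min. Then 5 nM EDA-m7GDP-ATTO-647N was added for 15 min, in HEPES pH 7.5, 100 mM KCl. The 665/620 TR-FRET ratio was normalized to controls, and IC50 was taken from 4-parameter fits.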

[4] = tested on: cap-dependent translation in Flp-In-293 reporter cells; experiment: Cellular cap-dependent translation inhibition assay (dual luciferase assay, DLA; Fluc/Rluc ratio, 24 hours); type: cell-based
[5] = Homo sapiens, Flp-In-293, 24 h, dual luciferase assay, Flp-In-293 reporter cells, 24 hours, Fluc/Rluc ratio, read-out: DLA 205 IC50

| Compound | pIC50 [1] | pIC50 ([2]; Homo sapiens, COLO 205, 72 h) | pIC50 [3] | pIC50 [4, 5] | pIC50 ([4]; Homo sapiens, Flp-In-293, 24 h, read-out: DLA 205 IC50, dual luciferase assay, Flp-In-293 reporter cells, 24 hours, Fluc/Rluc ratio) | pIC50 ([2]; Homo sapiens) | pIC50 ([4]; dual luciferase assay, Flp-In-293 reporter cells, 24 hours, Fluc/Rluc ratio, read-out: DLA 205 IC50) | pIC50 [2] |
| --- | --- | --- | --- | --- | --- | --- | --- | --- |
| Cc1cc(-c2cc(Cl)ccc2OCCn2c(C)nc3c(c2=O)CC(N2CCC(C)(O)CC2)CC3)c2scc(C(=O)O)c2n1 (stereo not drawn) [Compound 209] | < 4.70 | < 4.70 | > 7.00 | – | – | – | – | – |
| Cc1cc(-c2cc(Cl)ccc2OCCn2c(C)nc3c(c2=O)CC(N2CCC4(CC2)CC4)CC3)c2scc(C(=O)O)c2n1 (stereo not drawn) [Compound 192] | > 5.30 | > 5.30 | > 7.00 | – | – | – | – | – |
| Cc1cc(-c2cc(Cl)ccc2OCCn2c(C)nc3c(c2=O)CC(N(C)Cc2cnccn2)CC3)c2scc(C(=O)O)c2n1 (stereo not drawn) [Compound 199] | > 5.30 | > 5.30 | > 7.00 | – | – | – | – | – |
| Cc1cc(-c2cc(Cl)ccc2OCCn2c(C)nc3c(c2=O)C[C@H](N2C[C@H]4CCC(F)(F)[C@H]4C2)CC3)c2scc(C(=O)O)c2n1 (single isomer, unassigned) [Compound 166] | > 5.30 | > 5.30 | > 7.00 | – | – | – | – | – |
| COC1CCN(C2Cc3c(cc(C)n(CCOc4ccc(Cl)cc4-c4cc(C)nc5c(C(=O)O)csc45)c3=O)C3(CC3)C2)CC1 (stereo not drawn) [Compound 151] | > 5.30 | > 5.30 | > 7.00 | – | – | – | – | – |
| Cc1cc(-c2cc(Cl)ccc2OCCn2c(C)nc3c(c2=O)CC(N(C)CC2CC(F)(F)C2)CC3)c2scc(C(=O)NCC(F)F)c2n1 (stereo not drawn) [Compound 150] | < 4.70 | 4.70 to 5.30 | 5.30 to 6.30 | – | – | – | – | – |
| Cc1cc2c(cn1)CCN(C1CCc3nc(C)n(CCOc4ccc(Cl)cc4-c4cc(C)nc5c(C(=O)O)csc45)c(=O)c3C1)C2 (stereo not drawn) [Compound 177] | > 5.30 | > 5.30 | > 7.00 | – | – | – | – | – |
| Cc1cc(-c2cc(Cl)ccc2OCCn2c(C)nc3c(c2=O)C[C@H](N(C)C[C@H]2C[C@H](C(F)(F)F)C2)CC3)c2scc(C(=O)O)c2n1 (single isomer, unassigned) [Compound 213] | > 5.30 | > 5.30 | > 7.00 | – | – | – | – | – |
| Cc1cc(-c2cc(Cl)ccc2OCCn2c(C)nc3c(c2=O)C[C@H](N2C[C@@H]4CCC(F)(F)[C@@H]4C2)CC3)c2scc(C(=O)O)c2n1 (single isomer, unassigned) [Compound 167] | > 5.30 | > 5.30 | > 7.00 | – | – | – | – | – |
| Cc1nc2c(c(=O)n1CCOc1ccc(Cl)cc1-c1ccnc(C(=O)O)c1)CC(N(C)CC1CC(F)(F)C1)CC2 (stereo not drawn) [Compound 219] | < 4.70 | < 4.70 | > 7.00 | – | – | – | – | – |
| Cc1cc(-c2cc(Cl)ccc2OCCn2c(C)nc3c(c2=O)CC(N(C)Cc2ncc[nH]2)CC3)c2scc(C(=O)O)c2n1 (stereo not drawn) [Compound 190] | < 4.70 | < 4.70 | > 7.00 | – | – | – | – | – |
| Cc1cc(-c2cc(Cl)ccc2OCCn2c(C)nc3c(c2=O)C[C@H](N(C)C[C@H]2C[C@](C)(O)C2)CC3)c2scc(C(=O)O)c2n1 (relative stereo) [Compound 210] | < 4.70 | < 4.70 | > 7.00 | – | – | – | – | – |
| Cc1cc(-c2cc(Cl)ccc2OCCn2c(C)nc3c(c2=O)C[C@@H](N2CCC[C@@]4(C2)CC4(F)F)CC3)c2scc(C(=O)O)c2n1 (single isomer, unassigned) [Compound 141] | > 5.30 | > 5.30 | > 7.00 | – | – | – | – | – |
| Cc1cc(-c2cc(Cl)ccc2OCCn2c(C)nc3c(c2=O)C[C@@H](N2CCC[C@]4(C2)CC4(F)F)CC3)c2scc(C(=O)O)c2n1 (single isomer, unassigned) [Compound 140] | > 5.30 | > 5.30 | > 7.00 | – | – | – | – | – |
| Cc1cc(-c2cc(Cl)ccc2OCCn2c(C)nc3c(c2=O)CC(N(C)Cc2ccccn2)CC3)c2scc(C(=O)O)c2n1 (stereo not drawn) [Compound 200] | > 5.30 | > 5.30 | > 7.00 | – | – | – | – | – |
| COc1cc(CN(C)C2CCc3nc(C)n(CCOc4ccc(Cl)cc4-c4cc(C)nc5c(C(=O)NS(C)(=O)=O)csc45)c(=O)c3C2)ccn1 (single isomer, unassigned) [Compound 216] | > 5.30 | > 5.30 | > 7.00 | – | – | – | – | – |
| Cc1cc(-c2cc(Cl)ccc2OCCn2c(C)nc3c(c2=O)CC(N(C)Cc2cccc(N)n2)CC3)c2scc(C(=O)O)c2n1 (stereo not drawn) [Compound 173] | < 4.70 | 4.70 to 5.30 | > 7.00 | – | – | – | – | – |
| Cc1cc(-c2cc(Cl)ccc2OCCn2c(C)nc3c(c2=O)C[C@@H](N2C[C@H]4CCC(F)(F)[C@H]4C2)CC3)c2scc(C(=O)O)c2n1 (single isomer, unassigned) [Compound 168] | > 5.30 | > 5.30 | > 7.00 | – | – | – | – | – |
| Cc1cc(-c2cc(Cl)ccc2OCCn2c(C)nc3c(c2=O)CC(N2CCC4(CC2)CC(O)(C(F)(F)F)C4)CC3)c2scc(C(=O)O)c2n1 (stereo not drawn) [Compound 212] | 4.70 to 5.30 | 4.70 to 5.30 | > 7.00 | – | – | – | – | – |
| Cc1cc(-c2cc(Cl)ccc2OCCn2c(C)nc3c(c2=O)CC(N(C)Cc2cncnc2)CC3)c2scc(C(=O)O)c2n1 (stereo not drawn) [Compound 187] | 4.70 to 5.30 | > 5.30 | > 7.00 | – | – | – | – | – |
| Cc1cc(-c2cc(Cl)ccc2OCCn2c(C)nc3c(c2=O)CC(N2C[C@@H]4CC(F)(F)C[C@@H]4C2)CC3)c2scc(C(=O)O)c2n1 (stereo partly drawn) [Compound 175] | > 5.30 | > 5.30 | > 7.00 | – | – | – | – | – |
| Cc1cc(-c2cc(Cl)ccc2OCCn2c(C)nc3c(c2=O)CC(N2CCC4(C2)CC(F)(F)C4)CC3)c2scc(C(=O)O)c2n1 (stereo not drawn) [Compound 194] | > 5.30 | > 5.30 | > 7.00 | – | – | – | – | – |
| Cc1cc(-c2cc(Cl)ccc2OCCn2c(C)nc3c(c2=O)C[C@@H](N2CC[C@H](F)C2)CC3)c2scc(C(=O)O)c2n1 (single isomer, unassigned) [Compound 310] | – | > 5.30 | > 7.00 | > 6.00 | – | – | – | – |
| Cc1cc(-c2cc(Cl)ccc2OCCn2c(C)nc3c(c2=O)CC(N(C)C(=O)C2CCN(CC(F)(F)F)CC2)CC3)c2scc(C(=O)O)c2n1 (stereo not drawn) [Compound 71] | – | < 4.70 | > 7.00 | < 5.30 | – | – | – | – |
| Cc1cc(-c2cc(Cl)ccc2OCCn2c(C)nc3c(c2=O)CC(N2CCN(C)C(=O)C2)CC3)c2scc(C(=O)O)c2n1 (stereo not drawn) [Compound 95] | – | < 4.70 | > 7.00 | < 5.30 | – | – | – | – |
| Cc1cc(-c2cc(Cl)ccc2OCCn2c(C)nc3c(c2=O)CC(N2CCC(F)(F)CC2)CC3)c2scc(C(=O)O)c2n1 (stereo not drawn) [Compound 32] | – | > 5.30 | > 7.00 | > 6.00 | – | – | – | – |
| Cc1cc(-c2cc(Cl)ccc2OCCn2c(C)nc3c(c2=O)CC(N(C)C2CCC2)CC3)c2scc(C(=O)O)c2n1 (stereo not drawn) [Compound 91] | – | > 5.30 | > 7.00 | > 6.00 | – | – | – | – |
| Cc1cc(-c2cc(Cl)ccc2OCCn2c(C)nc3c(c2=O)CC(N2CCN(C)CC2)CC3)c2scc(C(=O)O)c2n1 (stereo not drawn) [Compound 10] | – | – | > 7.00 | – | 5.30 to 6.00 | 4.70 to 5.30 | – | – |
| Cc1nc2c(c(=O)n1CC#Cc1ccc(Cl)cc1-c1ccnc3c(C(=O)NS(C)(=O)=O)csc13)CC(N(C)C)CC2 (single isomer, unassigned) [Compound 273] | – | – | 5.30 to 6.30 | – | – | – | < 5.30 | < 4.70 |
| Cc1cc(-c2cc(Cl)ccc2OCCn2c(C)nc3c(c2=O)CC(N(C)CC2(C)COC2)CC3)c2scc(C(=O)NS(C)(=O)=O)c2n1 (single isomer, unassigned) [Compound 304] | – | 4.70 to 5.30 | > 7.00 | > 6.00 | – | – | – | – |
